# Reference: patent publication US12435315B2, “Generating dorsal foregut, and anterior domain, endoderm cells” (The Cleveland Clinic Foundation, priority 2019, dated 2025)
# B1: FGF4 (protein, UniProt P08620 31-206, looked up)
# Fibroblast growth factor 4: APTAPNGTLEAELERRWESLVALSLARLPVAAQPKEAAVQSGAGDYLLGIKRLRRLYCNVGIGFHLQALPDGRIGGAHADTRDSLLELSPVERGVVSIFGVASRFFVAMSSKGKLYGSPFFTDECTFKEILLPNNYNAYESYKYPGMFIALSKNGKTKKGNRVSPTMKVTHFLPRL
# notes: FGF signaling growth factor (R&D 7460-F4)
# B2: Activin A (protein, UniProt P08476 311-426, looked up)
# Inhibin beta A chain: GLECDGKVNICCKKQFFVSFKDIGWNDWIIAPSGYHANYCEGECPSHIAGTSGSSLSFHSTVINHYRMRGHSPFANLKSCCVPTKLRPMSMLYYDDGQNIIKKDIQNMIVEECGCS
# modifications: Inhibin beta A chain
# notes: TGFβ pathway agonist used as a Nodal mimic
# Tests used:
# Assay type in all cases: cell-based, human
# pluripotent stem cells [1] = assay: DoE/ISPA of biologically active retinoids for HNF1β induction (DFE induction); conditions: retinoid DoE; 13-cis and all trans stated to contribute negatively
# Excerpt: (§1) All DoE experimental designs were computer generated using D-optimal interaction designs in MODDE software (Sartorius Stedim Data Analytical Solutions, SSDAS). Perturbation matrixes were generated (96 independent experimental runs) on a Freedom Evol50 liquid handling robot (TECAN, CH). Each DoE differentiation experiment used a 3-day application of perturbation matrixes with daily media replacements. All cell culture, including manual preparatory expansion and seeding as well as any robotic manipulations were contained in a modular X-Vivo system (Biospherix, NY, USA) providing Process Analytical Technology (PAT) of the cell culture conditions (affording % N2, % O2, % CO2, and temperature control and monitoring at any point in the experimental process). End-point data collection was performed using an Open Array RT-QPCR method (QuantStudio, Life Technologies, 53 genes/sample/card). QuantStudio gene expression data were normalized within Expression Suite™ (Life Tech), standardized, and exported to MODDE. Mathematical modeling of the differentiation space was performed in MODDE using PLS maximizing the explained variance and subsequently gene-specific models were tuned by Q2 maximization. Fitted model optimized conditions for response maximization or minimization were extracted using the software predictive tools ‘optimizer’ and ‘dynamic profile’ analysis. Virtual experiments were performed in the known space covered by the experimental design, addressing pathway relative contributions to the desired parameters.
# Samples were loaded onto a custom design Quant Studio Card using an OpenArray AccuFill System (Life Technologies 4471021) and ran on a QuantStudio 12k Flex Real-Time PCR System (Life Technologies 4471090). The QuantStudio Open Array analysis provided expression information of 53 chosen genes per open array configuration. […] Initial designs included genes responding to all major sub-lineage fates downstream of pluripotency, while the later design focused more on endodermal lineages with an emphasis on pancreatic fates. […]
# pluripotent cultures [2] = assay: DoE/ISPA modeling of endodermal gene induction from pluripotency (3-day perturbation matrix, OpenArray RT-QPCR); conditions: ISPA prediction; for factor contribution (FC) for FOXA2 expression / factor contribution (FC) for HNF1β expression / factor contribution (FC) for MNX1 expression: pluripotent cultures
# Description: Pluripotent cultures were adapted to Essential 8 media (Gibco A15169-01) and grown on vitronectin (Gibco A14700) coated plates (Corning Inc. 3598). Differentiation experiments were seeded at 75,000 cells per cm^2 and maintained in E8 medium for 48 hours until cultures were approximately 90% confluent before initiating differentiation. All growth factors and small molecules were reconstituted according to supplier's recommendations and aliquots were stored at −80° C. for up to a year. Growth medium was changed daily and with the exception of the DE protocol the basal medium used in all differentiation experiments was CDM2 (Loh et al., 2014). The APS^Opt was composed of 250 nM LDN3189 (Sellekchem S2618), 50 ng/ml Activin A (Peprotech 120-14), 20 ng/ml bFGF (Gibco 13256029), 100 nM Sant1 (Sellekchem S7092). The HNF1β^Opt was supplemented with 250 nM LDN3189, 500 nM A8301 (Biogems 4463325), 12.6 ng/ml Wnt3a (R&D 5036WN/CF), 25 ng/ml bFGF, 250 nM PD0325 (Selleckchme S1036), 40 ng/ml SHH (Peprotech 100-45) and 2 uM retinoic acid (Sigma Aldrich R2625). DE was generated using conditions previously described (Rezania et al., 2014, D'Amour et al., 2005). The PDX1^Opt was composed of 500 nM A8301, 250 nM LDN3189, 100 nM Sant1, 250 nM PD0325, 2 uM retinoic acid and 1% B27 supplement (Gibco 12587) and with the exception of where it is stated differently in the text was used for 3 sequential days on differentiating cells. Endocrine push medium was supplemented with 100 nM gamma-secretase inhibitor XX (EMD Millipore 565789) and 500 nM A8301. Stomach organoids were generated using a modified protocol (McCracken et al., 2014). Briefly HNF1β^Opt cultures were incubated for three days with a stage 2 medium supplemented with 500 ng/ml Wnt3a, 500 ng/ml FGF4 (R&D 7460-F4), 250 nM LDN3189 and 2 uM retinoic acid (RA first day only). Cultures were passaged 1:6 with seeding occurring in a 1:4 Matrigel (Fisher Scientific 354230)/CDM2 mixture and incubated for 30 minutes at 37° C. before a three day application of stage 3 medium composed of 2 uM retinoic acid, 250 nM LDN3189 and 100 ng/ml EGF (R&D 236-EG). Cultures were then supplemented with a stage 4 medium supplemented with 100 ng/ml EGF for 23 days before organoids were recovered and fixed for sectioning.
# as §1
# RNA extractions for modeling analysis were performed using a MagMax-96 Total RNA Isolation Kit (Life Technologies AM1830) and performed according to manufacturer's protocol. […]
# pluripotent stem cells [3] = assay: Immunostaining and high content imaging of DFE markers (conversion efficiency); conditions: immunostaining of DFE markers, compared with HNF1β^Opt / RA
# Description: Histological characterization occurred by treating cell cultures with 4% paraformaldehyde (EMD 30525-89-4) solution at ambient temperature for 15 minutes. Samples were then blocked and permeabilized using 0.1M Tris/HCl (Promega H5123) pH 7.5 supplemented with 0.5% blocking reagent (Perkin Elmer FP1012) and 0.1% TrintonX-100 (Fisher Scientific BP151) for 1 hour. All antibody solutions were diluted in 0.1M Tris/HCl (Promega H5123) pH 7.5 and primary antibodies were incubated over-night while secondary antibodies were incubated for an hour. All incubations occurred at ambient temperature. Cultures were treated with a 1:2 dilution of Vectashield mounting medium (Vector Laboratories H-1200).
# To further validate the induction conditions for DFE markers, immunostaining was performed, followed by high content imaging to assess conversion efficiency.
# [4] = tested on: DFE-derived endocrine cultures; assay: Glucose stimulated insulin release assay (GSIS), C-peptide ELISA; conditions: 30 mM KCl, 30 minute incubation, versus 2 mM glucose basal
# Description: GSIS assays were performed by incubating cells in Krebs-Ringer buffer supplemented with 2 mM glucose for 30 minutes for determination of basal C-peptide levels. This was followed by changing reaction buffer to a Krebs Ringer buffer either supplemented with 20 mM glucose or 30 mM KCl for an additional 30 minute incubation. Buffer samples were collected and C-Peptide levels were quantified using ELISA (Mercodia 10-1141-01) according to manufacturer's protocol. Microfludic assays were performed as previously described (Adewola et al., 2010, Wang et al., 2012).
# DFE culture = assay: Sequential DoE/ISPA modelling on DFE culture, maximizing SOX2, OSR1 or PDX1 expression; conditions: ISPA; for factor contribution (FC) for PDX1 (pancreatic) activation: PDX1^Opt
# Description: Since we observed that the DFE cultures were competent for both stomach and pancreas induction we next evaluated this bi-potential nature through a sequential DoE modelling experiment performed on the DFE culture.
# Results from ISPA maximization of the expression of SOX2, OSR1 or PDX1 were compared (FIGS. 4A & B).
# Pluripotent cultures were adapted to Essential 8 media (Gibco A15169-01) and grown on vitronectin (Gibco A14700) coated plates (Corning Inc. 3598). Differentiation experiments were seeded at 75,000 cells per cm^2 and maintained in E8 medium for 48 hours until cultures were approximately 90% confluent before initiating differentiation. All growth factors and small molecules were reconstituted according to supplier's recommendations and aliquots were stored at −80° C. for up to a year. Growth medium was changed daily and with the exception of the DE protocol the basal medium used in all differentiation experiments was CDM2 (Loh et al., 2014). The APS^Opt was composed of 250 nM LDN3189 (Sellekchem S2618), 50 ng/ml Activin A (Peprotech 120-14), 20 ng/ml bFGF (Gibco 13256029), 100 nM Sant1 (Sellekchem S7092). The HNF1β^Opt was supplemented with 250 nM LDN3189, 500 nM A8301 (Biogems 4463325), 12.6 ng/ml Wnt3a (R&D 5036WN/CF), 25 ng/ml bFGF, 250 nM PD0325 (Selleckchme S1036), 40 ng/ml SHH (Peprotech 100-45) and 2 uM retinoic acid (Sigma Aldrich R2625). […] The PDX1^Opt was composed of 500 nM A8301, 250 nM LDN3189, 100 nM Sant1, 250 nM PD0325, 2 uM retinoic acid and 1% B27 supplement (Gibco 12587) and with the exception of where it is stated differently in the text was used for 3 sequential days on differentiating cells.
# pluripotent cultures [5] = assay: HD-DoE gastrulation modeling, normalized effector factor contributions for endodermal genes; conditions: ISPA
# Excerpt: as §1, with “Virtual experiments were performed in the known space covered by the experimental design, addressing pathway relative contributions to the desired parameters.” left out
# To better understand how the in vitro produced endodermal populations being studied are patterned we next performed a follow-up DoE-based gastrulation modeling experiment (FIG. 16A). ISPA optimizing for all the individual endoderm genes measured were then subjected to a cluster analysis using Seurat R package (FIG. 16B). […]
# HD-DoE designs incorporating Activin A (AA), BMP4, NODAL, retinoic acid and respective inhibitors were used on pluripotent cultures and key endodermal genes were monitored (FIG. 16). Resulting data was imported into analysis software and computer models predicting optimal culture conditions for activating all genes monitored were clustered (FIG. 19B). […]
molecule,measurement,setting,value
CC1=C(/C=C/C(C)=C/C=C/C(C)=C/C(=O)O)C(C)(C)CCC1=O [4-oxo-retinoic acid],factor contribution (FC) to HNF1β induction,pluripotent stem cells [1],13.21
CC1=C(/C=C/C(C)=C/C=C/C(C)=C\C(=O)O)C(C)(C)CCC1 [13-cis retinoic acid],factor contribution (FC) to HNF1β induction,pluripotent stem cells [1],24.1609
"Cc1cccc(-c2nn(C(=S)Nc3ccccc3)cc2-c2ccnc3ccccc23)n1 [Alk5i, A8301]",factor contribution (FC) for FOXA2 expression,pluripotent cultures [2],8.88
same,factor contribution (FC) for HNF1β expression,pluripotent cultures [2],7.59
same,factor contribution (FC) for MNX1 expression,pluripotent cultures [2],18.98
"c1ccc2c(-c3cnn4cc(-c5ccc(N6CCNCC6)cc5)cnc34)ccnc2c1 [BMPi, LDN193189]",factor contribution (FC) for FOXA2 expression,pluripotent cultures [2],25.3
same,factor contribution (FC) for HNF1β expression,pluripotent cultures [2],31.7
same,factor contribution (FC) for MNX1 expression,pluripotent cultures [2],30.5
CC1(C)CCC(C)(C)c2cc(C#Cc3ccc(C(=O)O)cc3)ccc21 [EC23],effectiveness of DFE induction by alternative retinoic acid pathway agonists,pluripotent stem cells [3],operates equivalently to RA
[Cl-].[K+] [KCl],increase in detectable C-peptide levels,[4],4 fold
O=C(NOC[C@H](O)CO)c1ccc(F)c(F)c1Nc1ccc(I)cc1F [PD0325901],factor contribution (FC) for PDX1 (pancreatic) activation,DFE culture,29.62
"CC1=C(/C=C/C(C)=C/C=C/C(C)=C/C(=O)O)C(C)(C)CCC1 [RA, retinoic acid]",factor contribution (FC) for FOXA2 expression,pluripotent cultures [2],24.8
same,factor contribution (FC) for HNF1β expression,pluripotent cultures [2],30.1
same,factor contribution (FC) for MNX1 expression,pluripotent cultures [2],22.7
same,factor contribution (FC) for OSR1 (gastric) activation,DFE culture,30.68
same,factor contribution (FC) for SOX2 expression,DFE culture,−28.59
same,factor contribution (FC) for PDX1 (pancreatic) activation,DFE culture,31.38
same,factor contribution (FC) to HNF1β induction,pluripotent stem cells [1],2.773
SHH,factor contribution (FC) for SOX2 expression,DFE culture,29.58
B1,factor contribution (FC) for OSR1 (gastric) activation,DFE culture,13.45
B2,contribution to activating retinoic acid/BMP inhibition-dependent endoderm genes,"pluripotent cultures [2]; FOXA2, HNF1β, MNX1 etc.",no contribution
same,factor contribution (FC) to anterior primitive streak (APS) gene induction,"pluripotent cultures [2]; maximal MESP1, EOMES, BRACHYURY/T, minimal EVX1",18.85
same,normalized factor contribution for OSR1 activation,pluripotent cultures [5],−1.0
same,normalized factor contribution for PAX9 activation,pluripotent cultures [5],−0.85
same,normalized factor contribution for TBX1 activation,pluripotent cultures [5],−0.59
